Assay [1] can be described thus: Inhibition of Mycobacterium tuberculosis Uracil-DNA glycosylase using 5' 32P end-labelled uracil DNA containing oligomer (5'-ctcaagtgUaggcatgcttttgcatgcctgcacttga-3') as substrate preincubated with enzyme for 15 mins followed by incubation on ice for 5 mins and incubation at room temperature for 5 mins and later incubated with substrate for 15 mins by radioactivity based assay.

Assay [2] is described as follows: Inhibition of Mycobacterium tuberculosis Uracil-DNA glycosylase using 5'-FAM-CUUUUUGAGCTTTTGCTCAAAAAG-3'-BHQ-1 as substrate measured every 2 mins for 40 mins by fluorescence based analysis.

`COC(=O)c1ccc(OCCOc2ccccc2C=C2C(=O)NC(=O)NC2=O)cc1`: in assay [1], the IC50 turned out to be 3500 µM.

With `Oc1ncc(O)c(O)n1`, the IC50 was determined as 2800 µM in assay [2] and 1200 µM in assay [1].

Regarding `O=c1cc[nH]c(=O)[nH]1` [URACIL], the IC50 was found to be 2050 µM in assay [2] and 800 µM in assay [1].

For the molecule `COC(=O)CCCOc1ccccc1C=C1C(=O)NC(=O)NC1=O`, in assay [2], inhibition was half-maximal at 990 µM (IC50).

The molecule `COC(=O)COc1cccc(C=C2C(=O)NC(=O)NC2=O)c1` came in with an IC50 in assay [2] of 10400 µM.

`COC(=O)CCCOc1cccc(C=C2C(=O)NC(=O)NC2=O)c1` registered an IC50 in assay [2] of 4200 µM.

As to `O=C(O)c1cc(=O)[nH]c(=O)[nH]1` [OROTIC ACID], the IC50 in assay [2] amounted to 14200 µM; in assay [1], 2300 µM.

Take `COC(=O)c1cccc(OCCOc2ccc(C=C3C(=O)NC(=O)NC3=O)cc2)c1`: the IC50 in assay [1] was 2400 µM.

Take `O=Cc1cc(=O)[nH]c(=O)[nH]1`: the IC50 in assay [2] is 6510 µM; in assay [1] it was 1000 µM.

Take `O=C1NC(=O)C(=Cc2ccc(Br)cc2)C(=O)N1`: in assay [1], the IC50 came to 1500 µM.

In the case of `O=C1NC(=O)C(=Cc2ccc(OCCCOc3ccccc3C(=O)O)cc2)C(=O)N1`, in assay [1], the IC50 amounted to 700 µM.

Turning to `COC(=O)c1ccccc1OCCOc1ccccc1C=C1C(=O)NC(=O)NC1=O`, in assay [2], the IC50 is 1060 µM.

For `O=C1NC(=O)C(=Cc2ccc(OCCOc3ccccc3C(=O)O)cc2)C(=O)N1`, the IC50 stood at 1100 µM in assay [2] and 1900 µM in assay [1].

`COC(=O)COc1ccccc1C=C1C(=O)NC(=O)NC1=O` yielded an IC50 in assay [2] of 5550 µM.

With `COc1cc2nc(O)nc(O)c2cc1OC`, it took 930 µM to reach half-maximal inhibition in assay [2] (IC50).

Consider `O=C(O)c1[nH]c(=O)[nH]c(=O)c1F`, for which the IC50 in assay [2] came out at 2930 µM; in assay [1], 2800 µM.

On to `O=C(O)c1c[nH]c(=O)[nH]c1=O`, for which the IC50 in assay [2] turned out to be 15900 µM; in assay [1] it was 2400 µM.

Turning to `O=C1NC(=O)C(=Cc2ccc([N+](=O)[O-])cc2)C(=O)N1`, the IC50 in assay [1] amounted to 1000 µM.

`O=C1CSC(=O)N1` [THIAZOLIDINEDIONE] returned an IC50 in assay [2] of 17300 µM.

Take `COC(=O)COc1ccc(C=C2C(=O)NC(=O)NC2=O)cc1`: the results for the IC50 in assay [2] and in assay [1] were 330 µM and 500 µM, respectively.

Turning to `Cc1cc2nc3[nH]c(=O)[nH]c(=O)c3nc2cc1C` [LUMICHROME], the IC50 in assay [1] was found to be 1500 µM.

As for `COc1cccc(C=C2C(=O)NC(=O)NC2=O)c1`, in assay [1], the IC50 was determined as 1900 µM.

As for `COC(=O)c1ccccc1OCCCOc1ccc(C=C2C(=O)NC(=O)NC2=O)cc1`, in assay [1], the IC50 stood at 1600 µM.

For the molecule `COC(=O)CCCOc1ccc(C=C2C(=O)NC(=O)NC2=O)cc1`, the IC50 in assay [1] came to 3000 µM.

As for `Oc1nc(O)c2nc(O)[nH]c2n1` [URIC ACID], the IC50 stood at 16400 µM in assay [2] and 1700 µM in assay [1].

As for `COC(=O)c1ccccc1OCCOc1ccc(C=C2C(=O)NC(=O)NC2=O)cc1`, the IC50 in assay [1] is 100 µM.

As for `O=C1CC(=O)NC(=O)N1` [BARBITURIC ACID], the IC50 turned out to be 7290 µM in assay [2] and 1000 µM in assay [1].

Take `COC(=O)c1ccc(OCCOc2ccc(C=C3C(=O)NC(=O)NC3=O)cc2)cc1`: the IC50 in assay [1] came out at 1200 µM.

The values above are taken from ChEMBL document CHEMBL5620410, “Crystal structures of non-uracil ring fragments in complex with Mycobacterium tuberculosis uracil DNA glycosylase (MtUng) as a starting point for novel inhibitor design: A case study with the barbituric acid fragment” (Eur J Med Chem, 2023).
